Measurements reported in PubChem BioAssay AID2060890 (Molecular Pharmacology Branch, DTP, NCI, 2025).
pIC50: −log10 of the molar value.

Test system: LG0703-F948-PDC complex spheroid viability
Test: Anticancer human tumor LG0703-F948-PDC patient-derived lung adenocarcinoma cell line growth inhibition [RAS]
Details: for viability, T/C: stronger effect = lower value; for pIC50: curve of first compound; active = viability on the fitted dose curve at most 10% of control; inactive = the rest
Summary of the method: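 Agents were tested in combination matrices in half-log decrements from a top concentration at or near clinical Cmax (10 microM if undetermined). Targets were multi-cell spheroids of tumour lines plus HUVEC and MSC stromal cells.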

[1] = second compound 0.0316 µM, first compound 0.0316 µM
[2] = second compound 0.0316 µM, first compound 0.1 µM
[3] = second compound 0.0316 µM, first compound 0.316 µM
[4] = second compound 0.0316 µM, first compound 1 µM
[5] = second compound 0.1 µM, first compound 0.0316 µM
[6] = second compound 0.1 µM, first compound 0.1 µM
[7] = second compound 0.1 µM, first compound 0.316 µM
[8] = second compound 0.1 µM, first compound 1 µM
[9] = second compound 0.316 µM, first compound 0.0316 µM
[10] = second compound 0.316 µM, first compound 0.1 µM
[11] = second compound 0.316 µM, first compound 0.316 µM
[12] = second compound 0.316 µM, first compound 1 µM
[13] = second compound 1 µM, first compound 0.0316 µM
[14] = second compound 1 µM, first compound 0.1 µM
[15] = second compound 1 µM, first compound 0.316 µM
[16] = second compound 1 µM, first compound 1 µM
[17] = second compound 3.16 µM, first compound 0.0316 µM
[18] = second compound 3.16 µM, first compound 0.1 µM
[19] = second compound 3.16 µM, first compound 0.316 µM
[20] = second compound 3.16 µM, first compound 1 µM
[21] = second compound 10 µM, first compound 0.0316 µM
[22] = second compound 10 µM, first compound 0.1 µM
[23] = second compound 10 µM, first compound 0.316 µM
[24] = second compound 10 µM, first compound 1 µM
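Note: spheroids exposed to agents for 7 days.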
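Throughout, for viability, T/C: 100% = DMSO vehicle wells.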

CCn1c(-c2cc(N3CCN(C)CC3)cnc2C(C)OC)c2c3cc(ccc31)-c1csc(n1)CC(NC(=O)C1CC1C)C(=O)N1CCCC(N1)C(=O)OCC(C)(C)C2 (configuration not stated)
inactive: viability, T/C (compound 0.003 µM) 46.6% [middle of 8 runs] | viability, T/C (compound 0.00949 µM) 25.5% [middle of 8 runs] | viability, T/C (compound 0.03 µM) 14% [middle of 8 runs] | viability, T/C (compound 0.0949 µM) 11.6% [middle of 8 runs]
12.3% [middle of 8 runs]: viability, T/C (compound 0.3 µM)
2.7 nM [middle of 8 runs]: IC50 (compound alone, run of 08/26/2024)

C=CC(=O)Nc1cc(Nc2nccc(-c3cn(C)c4ccccc34)n2)c(OC)cc1N(C)CCN(C)C + C#Cc1c(F)ccc2cc(O)cc(-c3ncc4c(N5CC6CCC(C5)N6)nc(OCC56CCCN5CC(F)C6)nc4c3F)c12
7.96: pIC50 (second compound 0.0316 µM)
8.37: pIC50 (second compound 1 µM)
active: viability, T/C [11] 10.1% | viability, T/C [12] 8.31% | viability, T/C [14] 10.2% | viability, T/C [15] 9.15% | viability, T/C [16] 7.05% | viability, T/C [18] 11.4% | viability, T/C [19] 8.78% | viability, T/C [20] 6.8% | viability, T/C [21] 10.5% | viability, T/C [22] 7.37% | viability, T/C [23] 6.33% | viability, T/C [24] 4.43%
inactive: viability, T/C (second compound 0.0316 µM, first compound 0.00316 µM) 96.5% | viability, T/C (second compound 0.0316 µM, first compound 0.01 µM) 53% | viability, T/C [1] 17.6% | viability, T/C [2] 12.5% | viability, T/C [3] 11.1% | viability, T/C [4] 8.76% | viability, T/C (second compound 0.1 µM, first compound 0.00316 µM) 84.3% | viability, T/C (second compound 0.1 µM, first compound 0.01 µM) 47.4% | viability, T/C [5] 15.8% | viability, T/C [6] 14% | viability, T/C [7] 13.8% | viability, T/C [8] 8.56% | viability, T/C (second compound 0.316 µM, first compound 0.00316 µM) 69.2% | viability, T/C (second compound 0.316 µM, first compound 0.01 µM) 34.9% | viability, T/C [9] 15.6% | viability, T/C [10] 11.2% | viability, T/C (second compound 1 µM, first compound 0.00316 µM) 56.2% | viability, T/C (second compound 1 µM, first compound 0.01 µM) 31.5% | viability, T/C [13] 14.2% | viability, T/C (second compound 3.16 µM, first compound 0.00316 µM) 48.8% | viability, T/C (second compound 3.16 µM, first compound 0.01 µM) 25% | viability, T/C [17] 10.1% | viability, T/C (second compound 10 µM, first compound 0.00316 µM) 33.5% | viability, T/C (second compound 10 µM, first compound 0.01 µM) 10.2%
8.04: pIC50 (second compound 0.1 µM)
8.22: pIC50 (second compound 0.316 µM)
> 8.50: pIC50 (second compound 3.16 µM) | pIC50 (second compound 10 µM)

CC(C)NCC(C(=O)N1CCN(c2ncnc3c2C(C)CC3O)CC1)c1ccc(Cl)cc1 (configuration not stated) + C#Cc1c(F)ccc2cc(O)cc(-c3ncc4c(N5CC6CCC(C5)N6)nc(OCC56CCCN5CC(F)C6)nc4c3F)c12
6.59: pIC50 (second compound 1 µM)
7.23: pIC50 (second compound 3.16 µM)
6.62: pIC50 (second compound 0.316 µM)
inactive: viability, T/C [1] 90% | viability, T/C [2] 67.3% | viability, T/C [3] 59.7% | viability, T/C [4] 46.4% | viability, T/C (second compound 0.0316 µM, first compound 3.16 µM) 29.8% | viability, T/C (second compound 0.0316 µM, first compound 10 µM) 26.1% | viability, T/C [5] 86.1% | viability, T/C [6] 68.2% | viability, T/C [7] 64.5% | viability, T/C [8] 40.5% | viability, T/C (second compound 0.1 µM, first compound 3.16 µM) 37.5% | viability, T/C (second compound 0.1 µM, first compound 10 µM) 22.9% | viability, T/C [9] 82.5% | viability, T/C [10] 60% | viability, T/C [11] 44.5% | viability, T/C [12] 35% | viability, T/C (second compound 0.316 µM, first compound 3.16 µM) 31.1% | viability, T/C (second compound 0.316 µM, first compound 10 µM) 15.8% | viability, T/C [13] 68.6% | viability, T/C [14] 63.6% | viability, T/C [15] 47.5% | viability, T/C [16] 25.6% | viability, T/C (second compound 1 µM, first compound 3.16 µM) 20.4% | viability, T/C (second compound 1 µM, first compound 10 µM) 10.2% | viability, T/C [17] 57.6% | viability, T/C [18] 43.4% | viability, T/C [19] 32.9% | viability, T/C [20] 17.8% | viability, T/C (second compound 3.16 µM, first compound 3.16 µM) 11.7% | viability, T/C [21] 34% | viability, T/C [22] 33.9% | viability, T/C [23] 17.9% | viability, T/C [24] 8.97%
6.16: pIC50 (second compound 0.1 µM)
active: viability, T/C (second compound 3.16 µM, first compound 10 µM) 7.15% | viability, T/C (second compound 10 µM, first compound 3.16 µM) 3.2% | viability, T/C (second compound 10 µM, first compound 10 µM) 0.42%
> 7.50: pIC50 (second compound 10 µM)
6.22: pIC50 (second compound 0.0316 µM)

CC1(O)CCCC1n1c(=O)c(C(F)F)cc2cnc(NC3CCN(S(C)(=O)=O)CC3)nc21 (configuration not stated) + CCn1c(-c2cc(N3CCN(C)CC3)cnc2C(C)OC)c2c3cc(ccc31)-c1csc(n1)CC(NC(=O)C1CC1C)C(=O)N1CCCC(N1)C(=O)OCC(C)(C)C2
> 7.50: pIC50 (second compound 0.003 µM) | pIC50 (second compound 0.00949 µM) | pIC50 (second compound 0.03 µM) | pIC50 (second compound 0.0949 µM) | pIC50 (second compound 0.3 µM)
5.34: pIC50 (second compound 0.000949 µM)
inactive: viability, T/C (second compound 0.000949 µM, first compound 0.0316 µM) 77.1% | viability, T/C (second compound 0.000949 µM, first compound 0.1 µM) 89.8% | viability, T/C (second compound 0.000949 µM, first compound 0.316 µM) 69.7% | viability, T/C (second compound 0.000949 µM, first compound 1 µM) 71.1% | viability, T/C (second compound 0.000949 µM, first compound 3.16 µM) 63% | viability, T/C (second compound 0.000949 µM, first compound 10 µM) 28.3% | viability, T/C (second compound 0.003 µM, first compound 0.0316 µM) 52.2% | viability, T/C (second compound 0.003 µM, first compound 0.1 µM) 48.5% | viability, T/C (second compound 0.003 µM, first compound 0.316 µM) 46.9% | viability, T/C (second compound 0.003 µM, first compound 1 µM) 52.1% | viability, T/C (second compound 0.003 µM, first compound 3.16 µM) 46.7% | viability, T/C (second compound 0.003 µM, first compound 10 µM) 18.4% | viability, T/C (second compound 0.00949 µM, first compound 0.0316 µM) 27.4% | viability, T/C (second compound 0.00949 µM, first compound 0.1 µM) 31% | viability, T/C (second compound 0.00949 µM, first compound 0.316 µM) 31% | viability, T/C (second compound 0.00949 µM, first compound 1 µM) 29.3% | viability, T/C (second compound 0.00949 µM, first compound 3.16 µM) 33.4% | viability, T/C (second compound 0.00949 µM, first compound 10 µM) 13.4% | viability, T/C (second compound 0.03 µM, first compound 0.0316 µM) 16.4% | viability, T/C (second compound 0.03 µM, first compound 0.1 µM) 18.5% | viability, T/C (second compound 0.03 µM, first compound 0.316 µM) 15.9% | viability, T/C (second compound 0.03 µM, first compound 1 µM) 19.1% | viability, T/C (second compound 0.03 µM, first compound 3.16 µM) 19.1% | viability, T/C (second compound 0.03 µM, first compound 10 µM) 7.67% | viability, T/C (second compound 0.0949 µM, first compound 0.0316 µM) 11.3% | viability, T/C (second compound 0.0949 µM, first compound 0.1 µM) 14% | viability, T/C (second compound 0.0949 µM, first compound 0.316 µM) 12.9% | viability, T/C (second compound 0.0949 µM, first compound 1 µM) 17% | viability, T/C (second compound 0.0949 µM, first compound 3.16 µM) 21% | viability, T/C (second compound 0.0949 µM, first compound 10 µM) 5.97% | viability, T/C (second compound 0.3 µM, first compound 0.0316 µM) 10.2% | viability, T/C (second compound 0.3 µM, first compound 0.1 µM) 7.6% | viability, T/C (second compound 0.3 µM, first compound 0.316 µM) 15.7% | viability, T/C (second compound 0.3 µM, first compound 1 µM) 12.1% | viability, T/C (second compound 0.3 µM, first compound 3.16 µM) 11.2% | viability, T/C (second compound 0.3 µM, first compound 10 µM) 5.22%
